Measured values as given in patent US10220033B2, “Substituted benzoxazepine for cancer therapy” (University of Cape Town, priority 2014, dated 2019).
pIC50: −log10 of the molar value. Entries after “also recorded” stand apart in the source; their conditions may differ. Like-named read-outs stand apart in the source and are kept apart here.

Legend:
[1] = test system: WHCO5 oesophageal cancer cell line; assay: MTT assay for cell viability, IC50 determination; type: cell-based, human; details: MTT
Experimental: (§1) Cells were plated in 96-well plates and treated with varying concentrations of a test compound for 48 hours, after which MTT dye, 3-(4,5-dimethylthiazol-2-yl)-2,5-diphenyltetrazolium bromide (Sigma), was added, and crystals solubilised 4 hours later using Solubilisation Reagent (10% SLS in 0.01 M HCl). Absorbencies were measured at 595 nm the following day using a BioTek microplate spectrophotometer (Winooski, Vt., USA) and IC50 curves were generated using GraphPad Prism.

[2] = test system: A2780 ovarian cancer cell line; assay: MTT assay for cell viability, IC50 determination; type: cell-based; details: Homo sapiens, 48 hours
Experimental: as §1

[3] = test system: CP70 ovarian cancer cell line; assay: MTT assay for cell viability, IC50 determination; type: cell-based; details: 48 hours
Experimental: as §1

[4] = test system: CaSki cervical cancer cell line; assay: MTT assay for cell viability, IC50 determination; type: cell-based; details: MTT, read-out: IC50
Experimental: as §1

[5] = test system: DMB normal skin fibroblasts (non-cancer); assay: MTT assay for cell viability, IC50 determination; type: cell-based; details: Skin fibroblast; DMB non-cancer; 48 hours, MTT
Experimental: as §1

[6] = test system: FG0 normal skin fibroblasts (non-cancer); assay: MTT assay for cell viability, IC50 determination; type: cell-based; details: Skin fibroblast, 48 hours
Experimental: as §1

[7] = test system: KYSE150 oesophageal cancer cell line; assay: MTT assay for cell viability, IC50 determination; type: cell-based; details: Homo sapiens, KYSE-150; KYSE150; 48 hours, MTT
Experimental: as §1

[8] = test system: KYSE180 oesophageal cancer cell line; assay: MTT assay for cell viability, IC50 determination; type: cell-based; details: Homo sapiens, KYSE-180, 48 hours
Experimental: as §1

[9] = test system: KYSE30 oesophageal cancer cell line; assay: MTT assay for cell viability, IC50 determination; type: cell-based; details: Homo sapiens, KYSE-30, 48 hours
Experimental: as §1

[10] = test system: MCF7 breast cancer cell line; assay: MTT assay for cell viability, IC50 determination; type: cell-based; details: Homo sapiens, 48 hours, MTT
Experimental: as §1

[11] = test system: MDA-MB-231 breast cancer cell line; assay: MTT assay for cell viability, IC50 determination; type: cell-based; details: Homo sapiens, 48 hours, MTT
Experimental: as §1

[12] = test system: OVCAR3 ovarian cancer cell line; assay: MTT assay for cell viability, IC50 determination; type: cell-based; details: Homo sapiens, OVCAR-3, 48 hours
Experimental: as §1

[13] = test system: SVWI38 transformed cell line; assay: MTT assay for cell viability, IC50 determination; type: cell-based; details: SVWI38 transformed; 48 hours, MTT
Experimental: as §1

[14] = test system: WHCO1 oesophageal carcinoma cell line; assay: MTT assay for cell viability, IC50 determination; type: cell-based; details: Homo sapiens, 48 hours
Experimental: as §1

[15] = test system: WHCO6 oesophageal carcinoma cell line; assay: MTT assay for cell viability, IC50 determination; type: cell-based; details: Homo sapiens, 48 hours
Experimental: as §1

[16] = test system: WI38 non-cancer cell line; assay: MTT assay for cell viability, IC50 determination; type: cell-based; details: Homo sapiens, WI-38; WI38 non-cancer; 48 hours, MTT
Experimental: as §1

[17] = test system: PARP cleavage in CaSki cells; assay: PARP cleavage analysis by Western Blot; type: cell-based; details: IC50 and twice the IC50 (FIG. 5), varying concentrations 12 hours (FIG. 26)
Experimental: CaSki cells were treated with varying concentrations of Compound A for 12 hours, following which cells and cell floaters were harvested using RIPA buffer (10 mM Tris-Cl, pH 7.4, 150 mM NaCl, 1% sodium deoxycholate, 0.1% SDS, 1% Triton X-100, 1× complete protease inhibitor cocktail (Roche, Mannheim, Germany)) and Western Blot analysis performed, using a rabbit anti-Parp1/2 (H-250) antibody (sc-7150).

[18] = test system: GFP-Kpnα2 localisation in CaSki cells; assay: GFP-Kpnα2 nuclear translocation, fluorescence microscopy; type: cell-based; details: 10 μM
Experimental: For controls, equivalent volumes of DMSO were used. Cells were fixed with 4% paraformaldehyde prior to fluorescence microscopy and cell nuclei were stained with 0.5 μg/ml DAPI. Due to fluorescence emitted by Compound A in the GFP channel, the Compound A signal had to be excluded from the GFP signal by separating the emission spectra. A Zeiss LSM 510 Meta confocal microscope was used and images captured using the ZEN 2009 camera with associated AxioVision software (version 4.7). Pictures were edited using the Zeiss image browser. For quantification, 100 cells from each condition were analysed using Image J.
Compound A with cell-killing ability was tested for its ability to block nuclear import using a fluorescence-based screening assay. The assay was based on the fact that Kpnα enters the nucleus in a complex with Kpnβ1. Kpnα2 (Impα1 or Rch1) was GFP-tagged (FIG. 8) and its localisation monitored after treatment with the various compounds, via fluorescence microscopy. […] It was noted that Compound A fluoresced itself, and thus the compound fluorescence signal had to be excluded from the GFP-Kpnα2 signal by separating the emission spectra.

[19] = test system: AP-1 transcriptional activity in CaSki cells; assay: AP-1 luciferase reporter assay; type: cell-based; details: 10 or 15 μM, 24 hours (FIG. 15)
Experimental: To assay for AP-1 and p65 luciferase activities, 40 000 CaSki cells were plated in 24-well plates, and transfected with 50 ng of an API luciferase reporter (containing four copies of the AP-1 binding site) or 50 ng of a p65 luciferase reporter (containing five copies of the p65 binding site, Clontech, CA, USA) and 5 ng pRL-TK (encoding Renilla luciferase, Promega), using 0.16 μl TransFectin™ lipid reagent (Bio-Rad, Hercules, Calif., USA). The following day cells were treated with 10 or 15 μM Compound A. Luciferase activity was measured 24 hours after Compound A treatment using the Dual-LuciferaseR Reporter assay system (Promega, Madison, Wis., USA), according to the manufacturers' instructions. Luciferase readings were measured using the Veritas™ microplate luminometer (Promega) and luciferase readings were normalised to Renilla luciferase in the same extract.

[20] = Body mass of tumour-bearing mice during treatment; type: in vivo; details: WHCO6 tumour-bearing mice; 50 mg/kg i.p. over the course of the treatment (FIG. 29)
Experimental: WHCO6 cells were harvested and resuspended in PBS. For tumour inoculation, cancer cells (5×10^6 per mouse) were s.c. implanted into the hind flanks of female nude mice. Once tumours had reached a palpable size, drug treatment was initiated, where tumour-bearing mice were randomized and dosed i.p. with either vehicle (DMSO) or Compound A (50 mg/kg), every 2-3 days for 3 weeks. Tumour volumes were measured twice a week, using calipers, and tumour volume estimated using the following formula: volume=(length×width×width)/2. Mice were sacrificed 3 weeks after the commencement of drug treatment.

pIC50 ([1]; 48 hours): 5.04
pIC50 ([1]; Homo sapiens, 48 h): 5.04
pIC50 [2]: 5.24
pIC50 [3]: 5.11
pIC50 ([4]; 48 hours): 5.03
pIC50 ([4]; Homo sapiens, Ca-Ski, 48 h): 5.03
pIC50 [7]: 4.93
pIC50 [8]: 4.80
pIC50 [9]: 5.05
pIC50 [10]: 5.03
pIC50 [11]: 5.10
pIC50 [12]: 4.98
pIC50 [14]: 4.97
pIC50 [15]: 4.92
body mass of the mice [20]: did not change
Structure (SMILES): CN(C)CCCn1c(N)c(-c2nc3ccccc3[nH]2)c2nc3ccccc3nc21 [Compound A, 3-(1H-benzimidazol-2-yl)-1-(3-dimethylaminopropyl)pyrrolo[5,4-b]quinoxalin-2-amine]
pIC50 [5]: 4.50
pIC50 [6]: 4.67
pIC50 [13]: 4.98
pIC50 [16]: 4.62
PARP cleavage as an indicator of apoptosis [17]: induce cancer cell death via apoptosis; also recorded: increase in the levels of the 89 kDa cleaved PARP
number of cells containing cytoplasmic GFP-Kpnα2 ([18]; 24 hours (FIG. 9)): significant increase
GFP-Kpnα2 nuclear fluorescence signal ([18]; 24 hours (FIG. 10)): significant decrease
AP-1 luciferase activity [19]: decreased in a dose-dependent manner
